pEC50, pIC50: −log10 of the molar value. Like-named read-outs stand apart in the source and are kept apart here.
Tests used:
[1] = molecular target: T1, human DGKα (Homo sapiens, UniProt P23743); assay: DGKα LIPGLO assay (extruded liposome substrate), in vitro DGK inhibition; format: biochemical; details: liposome (LIPGLO) assay; read-out: DGKa LIPGLO IC50
T1 construct: TVMV protease cleavage site (C); Hexa-His (C); made in house; host or cells: Sf9 insect cells (baculovirus, Bac-to-Bac)

[2] = tested on: naïve human CD8 T cells; assay: Human CD8 T cells IFN-γ assay; format: cell-based; details: normalized to 3 μM reference compound with anti-CD3 plus anti-CD28 as 100% activation, read-out: HuCD8 INFG Normalized EC50;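 also: Naïve human CD8 T cells stimulated with plate-bound anti-CD3 and soluble anti-CD28, IFN-γ in supernatant quantified by AlphaLISA and converted to pg/mL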
[3] = tested on: Human venous whole blood; assay: Human whole blood IFN-γ assay; format: cell-based; details: normalized to 3 μM reference compound with anti-CD3 plus anti-CD28 as 100% activation;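 also: blood from healthy donors exposed to compound for 1 h before stimulation with anti-CD3 and anti-CD28 at 1 µg/mL each, IFN-γ quantified in supernatant by AlphaLISA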
[4] = molecular target: T2, human DGKζ (Homo sapiens, UniProt Q13574); assay: DGKζ LIPGLO assay (extruded liposome substrate), in vitro DGK inhibition; format: biochemical; details: liposome (LIPGLO) assay; read-out: DGKz LIPGLO IC50
T2 construct: TVMV protease cleavage site (C); Hexa-His (C); made in house; host or cells: Sf9 insect cells (baculovirus, Bac-to-Bac)

[5] = tested on: OT-1 CD8+ T cells with SIINFEKL-loaded MC38 tumor cells; assay: Murine cytotoxic T lymphocyte assay (IFN-γ, OT-1 CTL with MC38 tumor cells); format: cell-based, mouse; details: read-out: msCTL INFg IC50
In short: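 OT-1 CD8+ T cells, expanded 5 days with OVA peptide (1 μg/mL) and mIL2, pretreated 1 h with DGK inhibitors, then co-cultured overnight at 37° C at 1:10 with MC38 cells pulsed 3 h with 1 μg/mL SIINFEKL. IFN-γ in 24 h supernatant by AlphaLISA.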

[6] = Homo sapiens, 24 h, human whole blood, read-out: INFg Whole Blood Normalized Agonist EC50
[7] = human whole blood, read-out: INFg Whole Blood Normalized Agonist EC50
[8] = Homo sapiens, 24 h, read-out: INFg Whole Blood Normalized Agonist EC50, human whole blood

T1 sequence (P23743 with tags, fused parts or gaps): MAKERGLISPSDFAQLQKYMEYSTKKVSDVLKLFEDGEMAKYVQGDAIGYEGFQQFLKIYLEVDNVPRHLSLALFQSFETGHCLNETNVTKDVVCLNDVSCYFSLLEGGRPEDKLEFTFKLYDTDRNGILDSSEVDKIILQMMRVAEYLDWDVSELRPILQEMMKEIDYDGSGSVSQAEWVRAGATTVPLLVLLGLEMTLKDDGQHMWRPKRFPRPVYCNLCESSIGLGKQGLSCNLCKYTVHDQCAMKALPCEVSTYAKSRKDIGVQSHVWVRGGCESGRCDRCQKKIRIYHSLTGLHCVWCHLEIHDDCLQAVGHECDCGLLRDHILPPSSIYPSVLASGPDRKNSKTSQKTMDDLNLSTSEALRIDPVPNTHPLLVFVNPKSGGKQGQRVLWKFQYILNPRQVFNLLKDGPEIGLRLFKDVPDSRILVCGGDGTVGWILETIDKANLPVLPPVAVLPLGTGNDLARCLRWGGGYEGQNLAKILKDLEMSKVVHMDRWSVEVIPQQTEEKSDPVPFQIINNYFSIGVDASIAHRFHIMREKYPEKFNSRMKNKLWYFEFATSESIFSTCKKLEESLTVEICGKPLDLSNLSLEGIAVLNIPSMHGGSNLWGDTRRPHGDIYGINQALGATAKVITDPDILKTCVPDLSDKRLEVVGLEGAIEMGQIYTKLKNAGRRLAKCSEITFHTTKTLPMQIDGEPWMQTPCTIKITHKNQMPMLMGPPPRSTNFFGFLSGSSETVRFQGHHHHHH
T2 sequence (Q13574 with tags, fused parts or gaps isoform Q13574-4): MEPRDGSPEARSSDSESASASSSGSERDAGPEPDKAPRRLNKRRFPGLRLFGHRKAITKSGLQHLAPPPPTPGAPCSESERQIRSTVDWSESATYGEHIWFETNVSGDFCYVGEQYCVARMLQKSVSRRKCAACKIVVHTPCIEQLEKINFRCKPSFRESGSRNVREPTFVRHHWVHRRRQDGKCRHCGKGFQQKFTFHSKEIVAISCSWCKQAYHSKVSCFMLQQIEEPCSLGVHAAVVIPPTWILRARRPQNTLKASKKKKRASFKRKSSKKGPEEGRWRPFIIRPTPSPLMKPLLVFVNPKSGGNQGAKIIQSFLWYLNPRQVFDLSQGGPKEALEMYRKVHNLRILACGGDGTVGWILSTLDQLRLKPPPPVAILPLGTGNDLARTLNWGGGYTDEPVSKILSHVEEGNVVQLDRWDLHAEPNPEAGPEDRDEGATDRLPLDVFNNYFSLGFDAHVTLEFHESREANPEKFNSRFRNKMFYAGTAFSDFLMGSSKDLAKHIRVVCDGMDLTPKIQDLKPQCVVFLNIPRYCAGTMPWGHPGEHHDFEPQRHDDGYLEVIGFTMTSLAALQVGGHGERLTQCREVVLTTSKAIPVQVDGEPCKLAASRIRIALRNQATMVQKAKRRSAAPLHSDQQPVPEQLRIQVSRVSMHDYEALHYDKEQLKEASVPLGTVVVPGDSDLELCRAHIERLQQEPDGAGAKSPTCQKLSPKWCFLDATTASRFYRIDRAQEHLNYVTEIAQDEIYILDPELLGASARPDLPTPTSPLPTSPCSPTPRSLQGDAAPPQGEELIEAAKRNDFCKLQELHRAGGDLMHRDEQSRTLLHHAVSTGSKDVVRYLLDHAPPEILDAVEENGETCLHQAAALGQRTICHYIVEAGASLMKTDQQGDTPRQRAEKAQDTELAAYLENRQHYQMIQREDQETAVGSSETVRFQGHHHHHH

pIC50 [1]	pIC50 [4]	SMILES	pEC50 ([2]; Homo sapiens, T-cell, 20 h)	pEC50 [3, 6]	pIC50 ([5]; Mus musculus, MC-38)	pEC50 [2]	pEC50 [3, 7]	pIC50 [5]	pEC50 [3, 8]	pEC50 ([3]; Homo sapiens, human whole blood, read-out: INFg Whole Blood Normalized Agonist EC50)
6.46	6.42	C[C@@H]1CN(c2c(F)c(=O)n(C)c3ccc(C#N)nc23)[C@@H](C)CN1C(c1ccc(F)cc1)c1ccc(F)cc1 [Example 157, 8-((2S,5R)-4-(bis(4-fluorophenyl)methyl)-2,5-dimethylpiperazin-1-yl)-7-fluoro-5-methyl-6-oxo-5,6-dihydro-1,5-naphthyridine-2-carbonitrile]	7.14	6.28	7.11	–	–	–	–	–
6.33	6.00	C[C@@H]1CN(c2cc(=O)n(C)c3ccc(C#N)nc23)[C@@H](C)CN1C(c1ccc(F)cc1)c1ccc(C#N)cc1 (single isomer, unassigned) [Example 307]	–	–	–	7.52	6.48	7.51	–	–
4.02	5.27	COCC1CN(c2cc(=O)n(C)c3ccc(C#N)nc23)CCN1C(c1ccc(F)cc1)c1ccc(F)cc1 (single isomer, unassigned) [Example 92, 8-(4-(bis(4-fluorophenyl)methyl)-3-(methoxymethyl)piperazin-1-yl)-5-methyl-6-oxo-5,6-dihydro-1,5-naphthyridine-2-carbonitrile]	–	–	–	5.01	5.05	6.16	–	–
4.85	6.59	COc1ncccc1C(c1ccc(F)cc1)N1C[C@H](C)N(c2cc(=O)n(C)c3ccc(C#N)nc23)C[C@H]1C (single isomer, unassigned) [Example 210]	–	–	6.92	6.89	5.96	–	–	–
5.72	5.51	Cn1c(=O)c(Cl)c(N2CCN(C(c3ccc(F)cc3)c3ccc(F)cc3)C(CO)C2)c2nc(C#N)ccc21 (single isomer, unassigned) [Example 100, 8-(4-(bis (4-fluorophenyl)methyl)-3-(hydroxymethyl)piperazin-1-yl)-7-chloro-5-methyl-6-oxo-5,6-dihydro-1,5-naphthyridine-2-carbonitrile]	7.05	5.85	6.96	–	–	–	–	–
6.18	6.36	Cc1ccc(C(c2ccc(F)cc2)N2C[C@H](C)N(c3cc(=O)n(C)c4ccc(C#N)nc34)C[C@H]2C)cc1 (single isomer, unassigned) [Example 252]	–	–	–	6.80	6.37	7.66	–	–
6.22	6.20	Cc1ccc(C(c2ccc(Cl)cc2)N2C[C@H](C)N(c3cc(=O)n(C)c4ccc(C#N)nc34)C[C@H]2C)cc1 (single isomer, unassigned) [Example 250]	–	–	–	6.92	6.15	6.72	–	–
6.33	5.89	C[C@@H]1CN(c2cc(=O)n(C)c3ccc(C#N)nc23)[C@@H](C)CN1C(c1ccc(F)cc1)c1ccc(C#N)cc1 (single isomer, unassigned) [Example 306]	7.27	6.28	7.28	–	–	–	–	–

The remaining lines, values behind:

SMILES	pIC50 [1]	pIC50 [4]	pEC50 ([2]; Homo sapiens, T-cell, 20 h)	pEC50 [3, 6]	pIC50 ([5]; Mus musculus, MC-38)	pEC50 [2]	pEC50 [3, 7]	pIC50 [5]	pEC50 [3, 8]	pEC50 ([3]; Homo sapiens, human whole blood, read-out: INFg Whole Blood Normalized Agonist EC50)
C[C@H]1CN(c2c(C#N)c(=O)n(C)c3ccc(C#N)nc23)CCN1C(c1ccc(F)cc1)c1ccc(F)cc1 [Example 38, (S)-8-(4-(bis(4-fluorophenyl)methyl)-3-methylpiperazin-1-yl)-5-methyl-6-oxo-5,6-dihydro-1,5-naphthyridine-2,7-dicarbonitrile]	5.66	5.74	7.17	5.49	7.11	–	–	–	–	–
COC(=O)C1CN(c2c(Cl)c(=O)n(C)c3ccc(C#N)nc23)CCN1C(c1ccc(F)cc1)c1ccc(F)cc1 (single isomer, unassigned) [Example 77, methyl 1-(bis(4-fluorophenyl)methyl)-4-(3-chloro-6-cyano-1-methyl-2-oxo-1,2-dihydro-1,5-naphthyridin-4-yl)piperazine-2-carboxylate]	4.09	3.62	–	–	–	5.00	5.77	5.48	–	–
COC(=O)C1CN(c2c(C#N)c(=O)n(C)c3ccc(C#N)nc23)CCN1C(c1ccc(F)cc1)c1ccc(F)cc1 (single isomer, unassigned) [Example 50, methyl 1-(bis(4-fluorophenyl)methyl)-4-(3,6-dicyano-1-methyl-2-oxo-1,2-dihydro-1,5-naphthyridin-4-yl)piperazine-2-carboxylate]	5.66	6.12	–	5.82	–	7.14	–	6.82	–	–
CC(C)OC(=O)C1CN(c2c(C#N)c(=O)n(C)c3ccc(C#N)nc23)CCN1C(c1ccc(F)cc1)c1ccc(F)cc1 (single isomer, unassigned) [Example 65, Isopropyl 1-(bis(4-fluorophenyl)methyl)-4-(3,6-dicyano-1-methyl-2-oxo-1,2-dihydro-1,5-naphthyridin-4-yl)piperazine-2-carboxylate]	3.62	–	–	4.80	–	5.77	–	5.08	–	–
C[C@@H]1CN(c2c(Cl)c(=O)n(C)c3ccc(C#N)nc23)CCN1C(c1ccc(F)cc1)c1ccc(F)cc1 [Example 29, (R)-8-(4-(bis(4-fluorophenyl)methyl)-3-methylpiperazin-1-yl)-7-chloro-5-methyl-6-oxo-5,6-dihydro-1,5-naphthyridine-2-carbonitrile]	–	–	7.74	–	7.43	–	–	–	5.89	–
C[C@@H]1CN(C(c2ccc(F)cc2)c2ccc(F)cc2)[C@@H](C)CN1c1cc(=O)n(C)c2ccc(C#N)nc12 [Example 4, 8-((2R,5S)-4-(bis(4-fluorophenyl)methyl)-2,5-dimethylpiperazin-1-yl)-5-methyl-6-oxo-5,6-dihydro-1,5-naphthyridine-2-carbonitrile]	–	–	6.52	–	6.49	–	–	–	5.46	–
C[C@@H]1CN(c2cc(=O)n(C)c3ccc(C#N)nc23)[C@@H](C)CN1C(c1ccc(F)cc1)c1ccccc1F (single isomer, unassigned) [Example 304]	–	–	–	–	–	8.07	–	7.33	6.31	–
C[C@H]1CN(C(c2ccc(F)cc2)c2ccc(F)cc2)[C@@H](C)CN1c1cc(=O)n(C)c2ccc(C#N)nc12 [Example 133, 8-((2S,5S)-4-(bis(4-fluorophenyl)methyl)-2,5-dimethylpiperazin-1-yl)-5-methyl-6-oxo-5,6-dihydro-1,5-naphthyridine-2-carbonitrile]	–	–	6.08	–	5.96	–	–	–	5.24	–
COC(=O)C1CN(c2c(C#N)c(=O)n(C)c3ccc(C#N)nc23)CCN1C(c1ccc(F)cc1)c1ccc(F)cc1 (single isomer, unassigned) [Example 51, methyl 1-(bis(4-fluorophenyl)methyl)-4-(3,6-dicyano-1-methyl-2-oxo-1,2-dihydro-1,5-naphthyridin-4-yl)piperazine-2-carboxylate]	–	5.68	–	–	–	6.29	5.80	5.72	–	–
C[C@@H]1CN(c2cc(=O)n(C)c3ccc(C#N)nc23)[C@@H](C)CN1C(c1ccccc1)c1ccc(F)cc1 (single isomer, unassigned) [Example 183]	–	–	7.41	–	7.48	–	–	–	–	6.15
